Reference: publication PMC8185074, “Anchor extension: a structure-guided approach to design cyclic peptides targeting enzyme active sites” (Nature Communications, 2021)
Peptide text beside a SMILES is read from it.

Legend:
Assay type in all cases: biochemical
[1] = target: T1, HDAC3 (Homo sapiens, UniProt O15379); assay: HDAC3 inhibition, full IC50 measurement (Reaction Biology; fluorogenic p53 peptide RHKK(Ac)AMC); conditions: t1
T1 construct: purchased Reaction Biology Corporation (assay run by the CRO)
T1 sequence (O15379 whole entry): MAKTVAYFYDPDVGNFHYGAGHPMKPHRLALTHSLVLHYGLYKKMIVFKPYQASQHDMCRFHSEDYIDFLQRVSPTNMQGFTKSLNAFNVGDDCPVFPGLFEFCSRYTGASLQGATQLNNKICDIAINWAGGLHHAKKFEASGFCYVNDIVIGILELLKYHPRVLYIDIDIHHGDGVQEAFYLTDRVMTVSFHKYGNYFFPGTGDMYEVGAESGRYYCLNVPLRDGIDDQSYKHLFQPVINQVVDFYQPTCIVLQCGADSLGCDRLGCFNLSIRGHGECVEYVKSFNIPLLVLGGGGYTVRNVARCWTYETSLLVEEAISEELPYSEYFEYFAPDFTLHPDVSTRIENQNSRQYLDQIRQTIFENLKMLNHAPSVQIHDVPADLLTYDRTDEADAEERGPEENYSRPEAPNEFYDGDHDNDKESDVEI
T1 sequence (Q9Y618 395-489 partner limits assumed): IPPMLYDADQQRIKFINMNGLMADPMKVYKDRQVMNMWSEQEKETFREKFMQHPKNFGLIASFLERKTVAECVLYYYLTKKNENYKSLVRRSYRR
Description: (§1) The assay was performed using 50 μM fluorogenic peptide from p53 residues 379-382 [RHKK(Ac)AMC] in a base reaction buffer of 50 mM Tris-HCl at pH 8.0, 137 mM NaCl, 2.7 mM KCl, 1 mM MgCl2, and freshly added 1 mg/ml BSA and 1% DMSO. Peptides were first dissolved in DMSO and then added to the reaction mixture with the enzyme using acoustic technique, enough to reach the desired concentration for that assay point. Peptide concentrations were calculated based on mass of lyophilized peptide and its molecular weight. The substrate was then added and incubated for 1 hour at 30 °C in a sealed container. After the incubation, developer was added to stop the reaction and develop color. Kinetic measurements were then performed for 20 min with Envision with 5 min intervals (Ex/Em = 360/460 nm). The endpoint after plateau was taken for IC50 measurement.
(§2) In cases where duplicate measures are used, average data is reported in the main text or Supplementary Tables.

[2] = target: T2, HDAC8 (Homo sapiens, UniProt Q9BY41); assay: HDAC8 inhibition, full IC50 measurement (Reaction Biology; fluorogenic p53 peptide RHKK(Ac)AMC); conditions: t1/t2 replicates
T2 construct: purchased Reaction Biology Corporation (assay run by the CRO)
T2 sequence (Q9BY41 1-377): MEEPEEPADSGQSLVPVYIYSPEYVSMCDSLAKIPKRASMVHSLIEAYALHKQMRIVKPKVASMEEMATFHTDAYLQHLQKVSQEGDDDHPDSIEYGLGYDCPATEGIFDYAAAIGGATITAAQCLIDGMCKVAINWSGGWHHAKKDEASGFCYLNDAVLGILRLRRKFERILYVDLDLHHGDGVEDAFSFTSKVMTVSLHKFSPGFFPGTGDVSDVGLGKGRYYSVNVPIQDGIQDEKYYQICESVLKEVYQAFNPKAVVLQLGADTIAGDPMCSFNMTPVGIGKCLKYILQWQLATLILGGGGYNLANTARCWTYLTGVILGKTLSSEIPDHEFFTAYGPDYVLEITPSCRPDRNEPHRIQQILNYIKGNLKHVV
Description: as §1, §2

[3] = target: T3, HDAC2 (Homo sapiens, UniProt Q92769); assay: HDAC2 inhibition, full IC50 measurement (Reaction Biology; fluorogenic p53 peptide RHKK(Ac)AMC); conditions: t1
T3 construct: purchased Reaction Biology Corporation (assay run by the CRO)
T3 sequence (Q92769 whole entry): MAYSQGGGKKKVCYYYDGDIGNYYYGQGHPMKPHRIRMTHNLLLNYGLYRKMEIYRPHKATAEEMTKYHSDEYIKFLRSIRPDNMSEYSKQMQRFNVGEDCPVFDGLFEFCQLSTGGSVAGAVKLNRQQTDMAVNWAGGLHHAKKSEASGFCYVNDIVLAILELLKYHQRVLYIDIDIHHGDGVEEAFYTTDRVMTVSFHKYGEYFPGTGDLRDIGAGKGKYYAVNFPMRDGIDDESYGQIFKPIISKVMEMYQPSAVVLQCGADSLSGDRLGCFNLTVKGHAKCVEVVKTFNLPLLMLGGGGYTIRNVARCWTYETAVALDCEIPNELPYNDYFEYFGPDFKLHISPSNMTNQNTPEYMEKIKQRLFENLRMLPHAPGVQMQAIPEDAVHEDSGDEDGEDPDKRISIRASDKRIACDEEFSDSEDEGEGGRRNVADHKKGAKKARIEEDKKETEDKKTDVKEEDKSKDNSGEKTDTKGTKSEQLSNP
Description: as §1, §2

[4] = target: T4, HDAC6 (Homo sapiens, UniProt Q9UBN7); assay: HDAC6 inhibition, full IC50 measurement (Reaction Biology; fluorogenic p53 peptide RHKK(Ac)AMC); conditions: t1
T4 construct: purchased Reaction Biology Corporation (assay run by the CRO)
T4 sequence (Q9UBN7 1-1215): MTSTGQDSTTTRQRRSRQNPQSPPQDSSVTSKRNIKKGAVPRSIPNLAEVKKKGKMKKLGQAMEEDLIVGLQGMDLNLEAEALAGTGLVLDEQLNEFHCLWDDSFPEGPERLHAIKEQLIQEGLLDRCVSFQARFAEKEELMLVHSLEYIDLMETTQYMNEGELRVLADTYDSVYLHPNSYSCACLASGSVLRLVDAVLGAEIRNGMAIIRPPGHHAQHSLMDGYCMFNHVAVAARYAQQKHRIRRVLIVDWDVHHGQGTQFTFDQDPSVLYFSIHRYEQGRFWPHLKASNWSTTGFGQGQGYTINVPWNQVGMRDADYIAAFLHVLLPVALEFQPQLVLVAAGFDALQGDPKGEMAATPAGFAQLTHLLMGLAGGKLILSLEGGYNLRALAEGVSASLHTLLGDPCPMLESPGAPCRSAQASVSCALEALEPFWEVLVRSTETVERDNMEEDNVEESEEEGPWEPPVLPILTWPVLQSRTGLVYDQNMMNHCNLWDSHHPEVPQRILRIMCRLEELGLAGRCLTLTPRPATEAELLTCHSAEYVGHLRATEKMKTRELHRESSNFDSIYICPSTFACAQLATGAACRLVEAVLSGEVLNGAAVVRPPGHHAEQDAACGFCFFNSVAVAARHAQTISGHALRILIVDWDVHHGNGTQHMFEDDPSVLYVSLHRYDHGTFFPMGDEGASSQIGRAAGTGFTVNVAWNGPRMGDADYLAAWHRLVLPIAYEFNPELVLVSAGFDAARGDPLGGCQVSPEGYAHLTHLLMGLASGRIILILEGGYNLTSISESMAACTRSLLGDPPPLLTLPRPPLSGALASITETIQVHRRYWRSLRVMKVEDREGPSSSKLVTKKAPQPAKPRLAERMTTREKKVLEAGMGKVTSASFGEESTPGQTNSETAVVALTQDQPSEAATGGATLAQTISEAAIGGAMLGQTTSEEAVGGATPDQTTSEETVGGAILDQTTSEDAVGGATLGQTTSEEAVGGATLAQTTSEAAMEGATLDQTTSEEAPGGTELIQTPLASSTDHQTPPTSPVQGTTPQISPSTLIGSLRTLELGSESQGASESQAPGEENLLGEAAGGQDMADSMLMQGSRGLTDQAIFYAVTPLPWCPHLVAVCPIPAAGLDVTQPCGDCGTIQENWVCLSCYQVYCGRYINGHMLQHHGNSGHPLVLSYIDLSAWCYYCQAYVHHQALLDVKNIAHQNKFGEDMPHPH
Description: as §1, §2

[5] = target: T5, HDAC1 (Homo sapiens, UniProt Q13547); assay: HDAC1 inhibition, full IC50 measurement (Reaction Biology; fluorogenic p53 peptide RHKK(Ac)AMC); conditions: t1/t2 replicates
T5 construct: purchased Reaction Biology Corporation (assay run by the CRO)
T5 sequence (Q13547 whole entry): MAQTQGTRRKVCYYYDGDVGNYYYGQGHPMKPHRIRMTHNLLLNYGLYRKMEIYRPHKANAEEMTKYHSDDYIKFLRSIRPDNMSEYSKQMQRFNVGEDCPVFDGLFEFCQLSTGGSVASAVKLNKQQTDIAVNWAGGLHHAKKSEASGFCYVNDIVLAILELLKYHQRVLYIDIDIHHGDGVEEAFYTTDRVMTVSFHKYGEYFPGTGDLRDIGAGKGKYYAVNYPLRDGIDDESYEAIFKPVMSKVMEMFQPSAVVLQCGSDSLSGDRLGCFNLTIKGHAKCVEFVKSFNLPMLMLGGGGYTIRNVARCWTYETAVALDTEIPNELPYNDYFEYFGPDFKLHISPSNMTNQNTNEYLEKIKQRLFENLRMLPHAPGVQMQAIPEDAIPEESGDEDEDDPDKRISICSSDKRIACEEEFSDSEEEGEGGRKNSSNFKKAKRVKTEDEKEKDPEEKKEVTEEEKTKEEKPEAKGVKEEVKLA
Description: as §1, §2

NCCCC[C@@H]1NC(=O)[C@@H]2C[C@@H](O)CN2C(=O)[C@H](CC(N)=O)NC(=O)[C@H](CCCCCS)NC(=O)CNC(=O)[C@H](Cc2c[nH]c3ccccc23)NC(=O)[C@@H](CCCCN)NC(=O)[C@H](CCC(N)=O)NC1=O [des1.1.2, SHA-Asn-Hpr-Lys-Gln-dLys-Trp-Gly] (HELM PEPTIDE1{G.[O=C([C@H](CCCCCS)N[*:1])[*:2]].N.[Hyp].K.Q.[dK].W}$PEPTIDE1,PEPTIDE1,1:R1-8:R2$$$V2.0)
HDAC3 activity raw data (signal) ([1]; Conc. 1.00E-05 M): 22366
HDAC3 activity raw data (signal) ([1]; Conc. 1.11E-06 M): 160146
HDAC3 activity raw data (signal) ([1]; Conc. 1.23E-07 M): 601268
HDAC3 activity raw data (signal) ([1]; Conc. 1.37E-08 M): 1087451
HDAC3 activity raw data (signal) ([1]; Conc. 1.52E-09 M): 1408573
HDAC3 activity raw data (signal) ([1]; Conc. 3.33E-06 M): 60464
HDAC3 activity raw data (signal) ([1]; Conc. 3.70E-07 M): 337153
HDAC3 activity raw data (signal) ([1]; Conc. 4.12E-08 M): 888364
HDAC3 activity raw data (signal) ([1]; Conc. 4.57E-09 M): 1250419
HDAC3 activity raw data (signal) ([1]; Conc. 5.08E-10 M): 1404307
HDAC8 activity raw data (signal) ([2]; peptide conc. 1.00E-05 M): 21213376
HDAC8 activity raw data (signal) ([2]; peptide conc. 1.11E-06 M): 37632401
HDAC8 activity raw data (signal) ([2]; peptide conc. 1.23E-07 M): 42211938
HDAC8 activity raw data (signal) ([2]; peptide conc. 1.37E-08 M): 48061782
HDAC8 activity raw data (signal) ([2]; peptide conc. 1.52E-09 M): 52470288
HDAC8 activity raw data (signal) ([2]; peptide conc. 3.33E-06 M): 31972513
HDAC8 activity raw data (signal) ([2]; peptide conc. 3.70E-07 M): 43240252
HDAC8 activity raw data (signal) ([2]; peptide conc. 4.12E-08 M): 47347914
HDAC8 activity raw data (signal) ([2]; peptide conc. 4.57E-09 M): 49471078
HDAC8 activity raw data (signal) ([2]; peptide conc. 5.08E-10 M): 54514203
HDAC2 activity raw data (signal) ([3]; Conc. 1.00E-05 M): 101836
HDAC2 activity raw data (signal) ([3]; Conc. 1.11E-06 M): 502310
HDAC2 activity raw data (signal) ([3]; Conc. 1.23E-07 M): 836305
HDAC2 activity raw data (signal) ([3]; Conc. 1.37E-08 M): 962979
HDAC2 activity raw data (signal) ([3]; Conc. 1.52E-09 M): 1015460
HDAC2 activity raw data (signal) ([3]; Conc. 3.33E-06 M): 281419
HDAC2 activity raw data (signal) ([3]; Conc. 3.70E-07 M): 724069
HDAC2 activity raw data (signal) ([3]; Conc. 4.12E-08 M): 1007771
HDAC2 activity raw data (signal) ([3]; Conc. 4.57E-09 M): 1082856
HDAC2 activity raw data (signal) ([3]; Conc. 5.08E-10 M): 1067045
HDAC6 activity raw data (signal) ([4]; Conc. 1.00E-05 M): 10576
HDAC6 activity raw data (signal) ([4]; Conc. 1.11E-06 M): 35009
HDAC6 activity raw data (signal) ([4]; Conc. 1.23E-07 M): 150676
HDAC6 activity raw data (signal) ([4]; Conc. 1.37E-08 M): 391207
HDAC6 activity raw data (signal) ([4]; Conc. 1.52E-09 M): 551447
HDAC6 activity raw data (signal) ([4]; Conc. 3.33E-06 M): 16992
HDAC6 activity raw data (signal) ([4]; Conc. 3.70E-07 M): 72135
HDAC6 activity raw data (signal) ([4]; Conc. 4.12E-08 M): 256776
HDAC6 activity raw data (signal) ([4]; Conc. 4.57E-09 M): 497632
HDAC6 activity raw data (signal) ([4]; Conc. 5.08E-10 M): 597163
HDAC1 activity raw data (signal) ([5]; peptide conc. 1.00E-05 M): 76959
HDAC1 activity raw data (signal) ([5]; peptide conc. 1.11E-06 M): 410794
HDAC1 activity raw data (signal) ([5]; peptide conc. 1.23E-07 M): 886094
HDAC1 activity raw data (signal) ([5]; peptide conc. 1.37E-08 M): 1048348
HDAC1 activity raw data (signal) ([5]; peptide conc. 1.52E-09 M): 1178275
HDAC1 activity raw data (signal) ([5]; peptide conc. 3.33E-06 M): 193861
HDAC1 activity raw data (signal) ([5]; peptide conc. 3.70E-07 M): 669526
HDAC1 activity raw data (signal) ([5]; peptide conc. 4.12E-08 M): 1039919
HDAC1 activity raw data (signal) ([5]; peptide conc. 4.57E-09 M): 1106752
HDAC1 activity raw data (signal) ([5]; peptide conc. 5.08E-10 M): 1177089
